In US20100261711A1, “SELECTIVE ANTICONVULSANT AGENTS AND THEIR USES” (WiSys Technology Foundation, priority 2009, published 2010):
pKi: −log10 of the molar value. Where two headings read alike, the source gives them in different places.

Key:
[1] = biological target: T1, GABAA/α4 (α4β3γ2 GABAA receptors) (Homo sapiens, UniProt P18507+P48169); experiment: Competitive binding assay, [3H]flunitrazepam
T1 construct: expressed in transfected cells
Experimental: (§1) The GABAA subunit selectivity of several compounds prepared as described above were determined using competitive binding assays. […] Membranes were harvested with a Brandel cell harvester followed by three ice-cold washes onto polyethyleneimine-pretreated (0.3%) Whatman GF/C filters. Filters were dried overnight and then soaked in Ecoscint, a liquid scintillation cocktail (National Diagnostics; Atlanta, Ga.). Bound radioactivity was quantified by liquid scintillation counting. Membrane protein concentrations were determined using an assay kit from Bio-Rad (Hercules, Calif.) with bovine serum albumin as the standard.

[2] = biological target: T2, GABAA/α5 (α5β3γ2 GABAA receptors) (Homo sapiens, UniProt P18507+P31644); experiment: Competitive binding assay, [3H]flunitrazepam
T2 construct: expressed in transfected cells
Experimental: as §1

[3] = biological target: T3, GABAA/α3 (α3β3γ2 GABAA receptors) (Homo sapiens, UniProt P18507+P34903); experiment: Competitive binding assay, [3H]flunitrazepam
T3 construct: expressed in transfected cells
Experimental: as §1

[4] = biological target: T4, GABAA/α1 (α1β3γ2 GABAA receptors) (Homo sapiens, UniProt P14867+P18507); experiment: Competitive binding assay, [3H]flunitrazepam
T4 construct: expressed in transfected cells
Experimental: as §1

[5] = biological target: T5, GABAA/α6 (α6β3γ2 GABAA receptors) (Homo sapiens, UniProt P18507+Q16445); experiment: Competitive binding assay, [3H]flunitrazepam
T5 construct: expressed in transfected cells
Experimental: as §1

[6] = biological target: T6, GABAA/α2 (α2β3γ2 GABAA receptors) (Homo sapiens, UniProt P18507+P47869); experiment: Competitive binding assay, [3H]flunitrazepam
T6 construct: expressed in transfected cells
Experimental: as §1

MES-induced seizures = experiment: Maximal electroshock test (MES), mice; assay type: in vivo; details: Mice IP, 100 mg/kg
Experimental: (§2) The benzodiazepine derivative compounds selective for GABAa receptor subunits were tested for the ability to suppress seizures in several standard rat and mouse models of epilepsy. […] The standard models incorporated into anticonvulsant screening include the maximal electroshock test (MES), the subcutaneous Metrazol test (scMet), and evaluations of toxicity (TOX). The data for each condition is presented as a ratio of either the number of animals protected or toxic (loss of locomotor activity) over the number of animals tested at a given time point and dose.
The MES is a model for generalized tonic-clonic seizures and provides an indication of a compound's ability to prevent seizure spread when all neuronal circuits in the brain are maximally active. These seizures are highly reproducible and are electrophysiologically consistent with human seizures. For all tests based on MES convulsions, 60 Hz of alternating current (50 mA in mice, 150 in rats) is delivered for by corneal electrodes which have been primed with an electrolyte solution containing an anesthetic agent (0.5% tetracaine HCL). For Test 1, mice are tested at various intervals following doses of 30, 100 and 300 mg/kg of test compound given by ip injection of a volume of 0.01 mL/g. In Test 2, rats are tested after a dose of 30 mg/kg (po) in a volume of 0.04 mL/g. Test 8 uses varying doses administered via i.p. injection, again in a volume of 0.04 ml/g. […] In Antiepileptic Drugs, Levy, R. H. M., Meldrum, B. S., Eds.; Raven Press: New York, pp 99-110, 1995b.).

[7] = tested on: minimal muscular or neurological impairment; experiment: Toxicity (TOX), rotorod procedure, mice; assay type: in vivo; details: Mice IP, 100 mg/kg
Experimental: as §2
To assess a compound's undesirable side effects (toxicity), animals are monitored for overt signs of impaired neurological or muscular function. […] When a mouse is placed on a rod that rotates at a speed of 6 rpm, the animal can maintain its equilibrium for long periods of time. The animal is considered toxic if it falls off this rotating rod three times during a 1-min period. In rats, minimal motor deficit is indicated by ataxia, which is manifested by an abnormal, uncoordinated gait. Rats used for evaluating toxicity are examined before the test drug is administered, since individual animals may have peculiarities in gait, equilibrium, placing response, etc., which might be attributed erroneously to the test substance.

[8] = tested on: Metrazol-induced clonic seizures; experiment: Subcutaneous Metrazol test (scMet), mice; assay type: in vivo; details: Mice IP, 100 mg/kg
Experimental: as §2
Subcutaneous injection of the convulsant Metrazol produces clonic seizures in laboratory animals. […] Animals are pretreated with various doses of the test compound (in a similar manner to the MES test, although a dose of 50 mg/kg (po) is the standard for Test 2 scMet). At the previously determined TPE of the test compound, the dose of Metrazol which will induce convulsions in 97% of animals (CD97: 85 mg/kg mice) is injected into a loose fold of skin in the midline of the neck. […] An episode of clonic spasms, approximately 3-5 seconds, of the fore and/or hindlimbs, jaws, or vibrissae is taken as the endpoint.

[9] = Binding Affinity at GABAA/α5, αxβ3γ2, [3H]flunitrazepam competition
[10] = Binding Affinity at GABAA/α3, αxβ3γ2, [3H]flunitrazepam competition
[11] = Binding Affinity at GABAA/α1, αxβ3γ2, [3H]flunitrazepam competition
[12] = Binding Affinity at GABAA/α2, αxβ3γ2, [3H]flunitrazepam competition

C#Cc1ccc2c(c1)C(c1ccccc1)=NC(C)c1c(C(=O)OCC)ncn1-2 (single isomer, unassigned) [SH-053-S-CH3, 8-Ethynyl-4-methyl-6-phenyl-4H-2,5,10b-triaza-benzo[e]azulene-3-carboxylic acid ethyl ester]
pKi [1]: < 5.30 | pKi [2, 9]: 6.69 | pKi [3, 10]: 5.90 | pKi [4, 11]: 5.78 | pKi [5]: < 5.30 | pKi [6, 12]: 5.90

CN1C(=O)CN=C(c2ccccc2)c2cc(Cl)ccc21 [Diazepam, reference compound]
pKi [1]: < 6.00 | pKi [5]: < 6.00

C#Cc1ccc2c(c1)C(c1cccs1)=NCc1c(C(=O)OCC)ncn1-2 [JC 221 (76), Ethyl 8-acetyleno-6-(2′-thienyl)-4H-benzo[f]imidazo[1,5-a][1,4]diazepine-3-carboxylate]
MES, animals protected/tested (MES-induced seizures; 0.5 hr): 0/3 | MES, animals protected/tested (MES-induced seizures; 4.0 hr): 0/3 | TOX (Rotorod Test), animals toxic/tested ([7]; 0.5 hr): 0/8 | TOX (Rotorod Test), animals toxic/tested ([7]; 4.0 hr): 0/4 | scMet, animals protected/tested ([8]; 0.5 hr): 0/1 | scMet, animals protected/tested ([8]; 4.0 hr): 0/1 | pKi [2, 9]: 7.84 | pKi [3, 10]: 6.74 | pKi ([4]; αxβ3γ2, [3H]flunitrazepam competition, read-out: Binding Affinity at GABAA/α1): 6.84 | pKi [5]: 6.44 | pKi ([6]; αxβ3γ2, [3H]flunitrazepam competition, read-out: Binding Affinity at GABAA/α2): 7.46

C[Si](C)(C)C#Cc1ccc2c(c1)C(c1ccccc1F)=NCc1c(C(=O)OCC(F)(F)F)ncn1-2 [JYI-53, Trifluoroethyl-8-trimethylsilylacetylenyl-6-(2′-fluorophenyl)-4H-benzo[f]imidazo[1,5-a][1,4]diazepine-3-carboxylate]
pKi ([2]; αxβ3γ2, [3H]flunitrazepam competition, read-out: Binding Affinity at GABAA/α5): 6.88 | pKi ([3]; αxβ3γ2, [3H]flunitrazepam competition, read-out: Binding Affinity at GABAA/α3): 6.74 | pKi [4, 11]: 7.11 | pKi ([5]; αxβ3γ2, [3H]flunitrazepam competition, read-out: Binding Affinity at GABAA/α6): 5.44 | pKi [6, 12]: 7.39
